From paper PMC6244214, “Pd-Catalyzed microwave-assisted synthesis of phosphonated 13α-estrones as potential OATP2B1, 17β-HSD1 and/or STS inhibitors” (Beilstein Journal of Organic Chemistry, 2018)
Like-named read-outs stand apart in the source and are kept apart here.

Key:
human OATP2B1 = biological target: T1, human OATP2B1 (Homo sapiens, UniProt O94956); experiment: Cascade Blue uptake assay of OATP2B1 transport activity; type: cell-based
T1 construct: expressed in transfected cells; host or cells: A431 cells
T1 sequence (O94956 1-709): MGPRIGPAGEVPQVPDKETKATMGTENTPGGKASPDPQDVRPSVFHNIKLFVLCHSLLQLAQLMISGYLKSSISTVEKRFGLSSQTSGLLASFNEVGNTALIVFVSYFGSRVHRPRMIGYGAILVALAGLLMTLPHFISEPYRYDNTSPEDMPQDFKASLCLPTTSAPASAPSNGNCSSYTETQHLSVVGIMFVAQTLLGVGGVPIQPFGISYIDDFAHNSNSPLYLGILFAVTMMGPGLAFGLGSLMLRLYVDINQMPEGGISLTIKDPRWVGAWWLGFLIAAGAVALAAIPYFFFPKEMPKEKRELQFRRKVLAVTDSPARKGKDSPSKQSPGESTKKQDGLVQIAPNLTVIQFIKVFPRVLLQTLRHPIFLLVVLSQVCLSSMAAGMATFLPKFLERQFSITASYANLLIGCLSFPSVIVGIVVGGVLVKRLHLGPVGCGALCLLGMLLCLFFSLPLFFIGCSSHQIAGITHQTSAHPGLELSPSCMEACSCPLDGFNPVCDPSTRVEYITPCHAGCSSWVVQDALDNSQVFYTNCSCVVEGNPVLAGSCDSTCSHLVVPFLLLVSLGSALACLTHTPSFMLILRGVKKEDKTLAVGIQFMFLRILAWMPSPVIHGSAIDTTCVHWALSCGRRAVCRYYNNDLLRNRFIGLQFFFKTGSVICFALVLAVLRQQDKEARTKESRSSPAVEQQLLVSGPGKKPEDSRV
Protocol: CascadeBlue assay.S1 A431 cells ([…] in 200 μl) overexpressing human OATP2B1 or transfected with the vector control were seeded on 96 well plates 16 hours prior to the transport measurement. Transport reaction was performed as described in.S1 Briefly, after washing the cells 3-times with 200 µl 1 × phosphate buffered saline (PBS) the cells were preincubated with test compounds in final concentrations from 0.03 to 50 µM or dimethyl sulfoxide (used as a solvent for the test compounds and serving as non-treated control) for 5 minutes at 37 °C. The reaction was started with the addition of 50 µl Cascade Blue (resulting in final concentration of 10 µM) and the cells were further incubated at 37 °C for 30 minutes.
The reaction was stopped by the addition of 200 µl ice-cold 1 × PBS, and after 3 washing steps the fluorescence remaining in the cells was determined by Enspire fluorescent plate reader (Perkin Elmer) at 400 nm excitation and 419 nm emission wavelengths. Transport activity was determined by subtracting fluorescence in mock transfected cells. Kinetics of inhibition was determined by Hill fit using the Origin 8.6 software. […]

[1] = biological target: T2, human placental steroid sulfatase (STS) (Homo sapiens, UniProt P08842); experiment: STS in vitro radiosubstrate incubation (estrone-3-sulfate to estrone conversion); type: biochemical; conditions: relative conversion vs non-inhibited control (100%); test compound 10 μM; substrate E1S 1.0 μM; placental microsomes; n = 3; read-out: STS rel. conv. ± SD
T2 construct: from tissue; host or cells: human term placenta, microsomes
T2 sequence (P08842 22-583): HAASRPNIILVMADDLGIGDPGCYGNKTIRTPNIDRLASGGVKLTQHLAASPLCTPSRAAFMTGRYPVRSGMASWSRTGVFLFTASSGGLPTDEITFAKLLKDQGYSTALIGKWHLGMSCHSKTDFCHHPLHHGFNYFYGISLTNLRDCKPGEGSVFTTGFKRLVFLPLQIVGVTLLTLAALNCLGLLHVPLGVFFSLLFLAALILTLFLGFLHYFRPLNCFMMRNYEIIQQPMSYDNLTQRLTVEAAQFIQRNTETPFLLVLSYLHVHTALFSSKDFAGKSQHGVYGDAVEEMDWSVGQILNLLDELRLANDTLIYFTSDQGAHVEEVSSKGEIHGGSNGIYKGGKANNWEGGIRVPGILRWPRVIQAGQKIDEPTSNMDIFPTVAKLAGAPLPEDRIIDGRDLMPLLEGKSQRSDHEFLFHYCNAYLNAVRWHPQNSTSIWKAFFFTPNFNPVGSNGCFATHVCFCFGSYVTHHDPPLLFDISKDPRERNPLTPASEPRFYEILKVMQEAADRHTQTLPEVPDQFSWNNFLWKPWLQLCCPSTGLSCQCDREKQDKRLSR
Protocol: (§1) The ability of the synthesized compounds 8–13 to inhibit activity of steroid sulfatase (STS) and 17β-hydroxysteroid dehydrogenase type 1 (17β-HSD1) was examined. In vitro radiosubstrate incubations were performed with adapted literature methodsS2–4 and human placenta served as source of the enzymes. Radiolabelled steroids were obtained from American Radiolabeled Chemicals (St. Louis, MO, USA). Other chemicals and solvents of analytical grade purity were purchased from Sigma (St. Louis, MO, USA), from Fluka (Buchs, Switzerland) or from Merck (Darmstadt, Germany).
(§2) 3.2. Preparation of enzyme sources
(§3) Human term placentae were collected immediately after delivery and stored frozen at −80 °C.
(§4) Tissue specimens were homogenized with an Ultra-Turrax in 0.1 M HEPES buffer solution […]
(§5) (pH 7.3) containing 1 mM EDTA and 1 mM dithiotreitol, and cytosol and microsomas were obtained with fractionated centrifugation. Application of the human tissue was approved by the institutional Human Investigation Review Board.
(§6) 3.3. Incubation procedures
(§7) Enzymatic incubations were carried out in the HEPES buffer medium at a final volume of 200
(§8) µl. The substrate was added to the incubate in 20 μl of a 25 % v/v propylene glycol in HEPES buffer solution, whereas test compounds were applied in 10 μl of dimethyl sulfoxide solution.
Incubations were performed at 37 °C and terminated by cooling and the addition of organic solvents of the subsequent extraction procedure. Control samples with no inhibitor and blank samples were incubated simultaneously. The radioactivity of the products formed was measured by means of liquid scintillation counting (LSC) and taken as indicator of the […]
STS assays were performed using microsoma suspension and estrone-3-sulfate (E1S) substrate with [6,7-3H]estrone-3-sulfate tracer with incubations lasting for 20 min. Reactions were terminated by the addition of equal volume of methanol, and the product estrone (E1) was extracted with toluene.S4 […]
(§9) In the general procedure, incubations were performed as described. Concentrations of the substrates were 1.0 μM, and the test compounds were applied at 10 μM final concentration in the incubate. Relative conversions compared to non-inhibited controls (100%) were determined. The assays were performed in triplicate, and the mean value and the standard deviation (SD) were calculated.
(§10) In these cases, conversions were measured at 10–15 different concentrations in the appropriate interval between 0.001–50 μM. IC50 results were calculated by using unweighted iterative least squares logistic curve fitting by means of the “absolute IC50 calculation“ function of the GraphPad Prism 4.0 software (GraphPad Software, Inc., San Diego, CA, USA).

[2] = biological target: T3, 17β-hydroxysteroid dehydrogenase type 1 (17β-HSD1) (Homo sapiens, UniProt P14061); experiment: 17β-HSD1 in vitro radiosubstrate incubation (estrone to 17β-estradiol conversion); type: biochemical; conditions: for remaining activity at 10 µM: read-out: 17β-HSD1 rel. conv. ± SD
T3 construct: from tissue; host or cells: human term placenta, cytosol
T3 sequence (P14061 1-328): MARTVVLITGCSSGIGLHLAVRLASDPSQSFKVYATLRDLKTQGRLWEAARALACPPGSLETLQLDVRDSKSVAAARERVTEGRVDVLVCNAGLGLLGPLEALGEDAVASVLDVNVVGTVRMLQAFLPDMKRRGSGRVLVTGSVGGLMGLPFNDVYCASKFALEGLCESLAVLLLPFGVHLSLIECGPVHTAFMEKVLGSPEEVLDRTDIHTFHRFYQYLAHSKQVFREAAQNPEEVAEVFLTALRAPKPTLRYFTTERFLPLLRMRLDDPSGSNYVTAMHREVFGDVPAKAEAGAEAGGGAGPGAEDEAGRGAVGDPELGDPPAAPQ
Protocol: as §1, §2, §3, §4, §5, §6, §7, §8
Incubations were performed at 37 °C and terminated by cooling and the addition of organic solvents of the subsequent extraction procedure. Control samples with no inhibitor and blank samples were incubated simultaneously. […]
In the 17β-HSD1 assays the cytosol was incubated using estrone (E1) substrate with [6,7-3H]estrone tracer and 0.1 mM NADPH cofactor excess. The incubation time was 2.5 min. The product 17β-estradiol (E2) was extracted with ethyl acetate and isolated by a TLC method.S5 […]
as §9, §10

[3] = A431 cells overexpressing human OATP2B1, Cascade Blue 10 μM, 30 min, 37 °C, read-out: OATP2B1 IC50 ± SD

Compound | IC50 (human OATP2B1) [µM] | remaining activity at 10 µM [1] [%] | remaining activity at 10 µM [2] [%] | IC50 [2] [µM] | IC50 ([2]; human placental cytosol, estrone 1.0 μM, 0.1 mM NADPH, read-out: 17β-HSD1 IC50 ± SD) [µM] | IC50 (human OATP2B1; [3]) [µM]
CCOP(=O)(OCC)c1cc2c(cc1OC)CC[C@@H]1[C@@H]2CC[C@@]2(C)C(=O)CC[C@@H]12 [8a, diethyl (3-methoxy-13α-estra-1,3,5(10)-trien-17-on-2-yl)phosphonate] | 1.8 ± 0.3 | 84 ± 4 | 60 ± 3 |  |  | 
COc1cc2c(cc1P(=O)(c1ccccc1)c1ccccc1)[C@H]1CC[C@@]3(C)C(=O)CC[C@H]3[C@@H]1CC2 [8b, (3-methoxy-13α-estra-1,3,5(10)-trien-17-on-2-yl)diphenylphosphine oxide] | 1.2 ± 0.1 | 80 ± 8 |  | 4.1 ± 1.1 |  | 
CCOP(=O)(OCC)c1cc2c(cc1O)CC[C@@H]1[C@@H]2CC[C@@]2(C)C(=O)CC[C@@H]12 [9a, diethyl (3-hydroxy-13α-estra-1,3,5(10)-trien-17-on-2-yl)phosphonate] | 2.1 ± 0.2 | 97 ± 5 |  | 1.5 ± 0.3 |  | 
C[C@@]12CC[C@@H]3c4cc(P(=O)(c5ccccc5)c5ccccc5)c(O)cc4CC[C@H]3[C@@H]1CCC2=O [9b, (3-hydroxy-13α-estra-1,3,5(10)-trien-17-on-2-yl)diphenylphosphine oxide] | 2.6 ± 0.2 | 77 ± 10 |  |  | 0.18 ± 0.06 | 
CCOP(=O)(OCC)c1cc2c(cc1OCc1ccccc1)CC[C@@H]1[C@@H]2CC[C@@]2(C)C(=O)CC[C@@H]12 [10a, diethyl (3-benzyloxy-13α-estra-1,3,5(10)-trien-17-on-2-yl)phosphonate] | 0.2 ± 0.02 | 85 ± 7 | 64 ± 3 |  |  | 
C[C@@]12CC[C@@H]3c4cc(P(=O)(c5ccccc5)c5ccccc5)c(OCc5ccccc5)cc4CC[C@H]3[C@@H]1CCC2=O [10b, (3-benzyloxy-13α-estra-1,3,5(10)-trien-17-on-2-yl)diphenylphosphine oxide] | 1 ± 0.1 | 85 ± 5 | 73 ± 3 |  |  | 
CCOP(=O)(OCC)c1c(OC)ccc2c1CC[C@@H]1[C@@H]2CC[C@@]2(C)C(=O)CC[C@@H]12 [11a, diethyl (3-methoxy-13α-estra-1,3,5(10)-trien-17-on-4-yl)phosphonate] | 2.8 ± 1.5 | 93 ± 7 | 100 ± 5 |  |  | 
COc1ccc2c(c1P(=O)(c1ccccc1)c1ccccc1)CC[C@@H]1[C@@H]2CC[C@@]2(C)C(=O)CC[C@@H]12 [11b, (3-methoxy-13α-estra-1,3,5(10)-trien-17-on-4-yl)diphenylphosphine oxide] | 2.5 ± 0.4 | 80 ± 5 | 106 ± 8 |  |  | 
CCOP(=O)(OCC)c1c(O)ccc2c1CC[C@@H]1[C@@H]2CC[C@@]2(C)C(=O)CC[C@@H]12 [12a, diethyl (3-hydroxy-13α-estra-1,3,5(10)-trien-17-on-4-yl)phosphonate] | 1.4 ± 0.1 | 93 ± 6 | 84 ± 4 |  |  | 
C[C@@]12CC[C@@H]3c4ccc(O)c(P(=O)(c5ccccc5)c5ccccc5)c4CC[C@H]3[C@@H]1CCC2=O [12b, (3-hydroxy-13α-estra-1,3,5(10)-trien-17-on-4-yl)diphenylphosphine oxide] | > 50 | 93 ± 4 | 100 ± 5 |  |  | 
CCOP(=O)(OCC)c1c(OCc2ccccc2)ccc2c1CC[C@@H]1[C@@H]2CC[C@@]2(C)C(=O)CC[C@@H]12 [13a, diethyl (3-benzyloxy-13α-estra-1,3,5(10)-trien-17-on-4-yl)phosphonate] | 0.3 ± 0.02 | 87 ± 5 | 92 ± 3 |  |  | 
C[C@@]12CC[C@@H]3c4ccc(OCc5ccccc5)c(P(=O)(c5ccccc5)c5ccccc5)c4CC[C@H]3[C@@H]1CCC2=O [13b, (3-benzyloxy-13α-estra-1,3,5(10)-trien-17-on-4-yl)diphenylphosphine oxide] | 0.3 ± 0.02 | 105 ± 7 | 75 ± 2 |  |  | 
C[C@@]12CC[C@@H]3c4ccc(OCc5ccccc5)cc4CC[C@H]3[C@@H]1CCC2=O [13αE1OBn, reference compound] |  |  |  |  |  | 1.7 ± 0.9
COc1ccc2c(c1)CC[C@@H]1[C@@H]2CC[C@@]2(C)C(=O)CC[C@@H]12 [13αE1OMe, reference compound] |  |  |  |  |  | 3.4 ± 0.3
